Measurements reported in US4388320A, “3-Aminopropoxyaryl derivative in the treatment of tremor” (Sandoz Ltd., priority 1981, dated 1983).
“Also recorded” adds a separate entry of the source.

Columns and labels:
adrenergic β-receptors = conditions: U.K. Patent Specification No. 1,575,510; cited from earlier work
[1] = further, similar clinical study, 4 patients with essential (familiary) tremor (Table 2); type: in vivo; conditions: 1 to 12 mg per day
Method: The result of a further, similar study with 4 patients with essential (familiary) tremor treated for 4 weeks with 1 to 12 mg per day of the compound of formula I in hydrogen malonate form is indicated in table 2: […]

acute toxicity, rabbit = conditions: in vivo, hydrogen malonate form
From the text: (§1) The tolerability of the compound was also studied using standard tests. For example, the acute toxicity of the compound of formula I in hydrogen malonate form is as follows: […]

[2] = clinical observations, treatment of tremor (overall); type: in vivo, patients
[3] = U.K. Patent Specification No. 1,575,510; cited from earlier work
[4] = system: lipolysis and glycogenolysis induced by isoproterenol; conditions: U.K. Patent Specification No. 1,575,510; cited from earlier work
[5] = first clinical study, 6 patients with constant essential (familiary) tremor, 4 weeks (Table 1); type: in vivo
Method: In one clinical study 6 patients with constant essential (familiary) tremor were given for 4 weeks once-a-day in the morning a capsule containing 1 to 8 mg of the compound of formula I in hydrogen malonate form. The dosage was increased gradually over the first two weeks of the study.

[6] = tolerability and comparison with other agents in anti-tremor use; type: in vivo, patients
acute toxicity, mouse = conditions: in vivo, hydrogen malonate form
From the text: as §1

acute toxicity, rat = conditions: in vivo, hydrogen malonate form
From the text: as §1

[7] = another clinical study, 6 patients with essential (familiary) tremor (Table 3); type: in vivo; conditions: 4 to 12 mg per day
[8] = known use; cited from earlier work
[9] = 4 patients, 4 weeks, hydrogen malonate form
[10] = after 2 weeks, total 6 patients, capsule once-a-day, 1 to 8 mg, hydrogen malonate form
[11] = after 4 weeks, total 6 patients, capsule once-a-day, 1 to 8 mg, hydrogen malonate form
[12] = 6 patients, 4 weeks, hydrogen malonate form

Cc1cc2c(OCC(CNC(C)(C)C)OC(=O)c3ccccc3)cccc2[nH]1 (stereo not shown) [compound of formula I, 4(2-benzoyloxy-3-tert-butylaminopropoxy)-2-methylindole]
blocking effect on the adrenergic β-receptors (adrenergic β-receptors): blocking effect on the adrenergic β-receptors
hypotension and bradycardia [1]: no hypotension and no bradycardia
side effects [1]: exceptionally few side effects
time to first observed improvement [1]: already after one week of treatment
time to maximum improvement [1]: 2 weeks
improvement (in words) ([1]; 4 patients, 4 weeks): marked improvement was observed in all 4 patients
Number of patients showing good improvement [1, 9]: 2 patients
Number of patients showing very good improvement [1, 9]: 2 patients
LD50 (acute toxicity, rabbit; iv, read-out: LD50 i.v.): 7 mg/kg
LD50 (acute toxicity, rabbit; po, read-out: LD50 p.o.): 334 mg/kg
usefulness / improvement in treatment of tremor (in words) [2]: impressive improvement; also recorded: useful in the treatment of tremor, especially of essential (familiary) tremor
antiarrhythmic effect [3]: antiarrhythmic effect
inhibition of lipolysis and glycogenolysis [4]: inhibit lipolysis and glycogenolysis induced by isoproterenol
improvement in tremor, benefit (in words) ([5]; 6 patients, 4 weeks, 1 to 8 mg once-a-day): all patients gained benefit; also recorded: the degree of improvement was either marked or moderate
Number of patients with marked (Ma) improvement after 2 weeks [5, 10]: 2 patients
Number of patients with moderate (Mo) improvement after 2 weeks [5, 10]: 4 patients
Number of patients with marked (Ma) improvement after 4 weeks [5, 11]: 3 patients
Number of patients with moderate (Mo) improvement after 4 weeks [5, 11]: 3 patients
hypotension and bradycardia ([5]; during treatment): No hypotension and no bradycardia
side effects ([5]; during treatment): remarkably free of side effects
duration of beneficial effect ([5]; once-a-day in the morning): the beneficial effect lasted the whole day
hypotension or bradycardia ([6]; in vivo): not induce hypotension or bradycardia
influence on P-Q wave in the electrocardiogramm ([6]; in vivo): does not significantly influence the P-Q wave
overall safety ([6]; in vivo): exceptionally safe
effect on blood pressure and heart rate ([6]; patients with underlying hypertension or tachycardia): normalization of blood pressure and heart rate
onset of anti-tremor activity compared with anticholinergics ([6]; versus anticholinergics): more rapid onset of activity
tolerability compared with anticholinergics ([6]; versus anticholinergics): better tolerated than anticholinergics
tolerability compared with other β-adrenoceptor blocking agents ([6]; versus e.g. propranolol): better tolerated than other β-adrenoceptor blocking agents, e.g. propranolol
LD50 (acute toxicity, mouse; iv, read-out: LD50 i.v.): 11 mg/kg
LD50 (acute toxicity, mouse; po, read-out: LD50 p.o.): 242 mg/kg
LD50 (acute toxicity, rat; iv, read-out: LD50 i.v.): 9 mg/kg
LD50 (acute toxicity, rat; po, read-out: LD50 p.o.): 1010 mg/kg
hypotension and bradycardia [7]: no hypotension and no bradycardia
improvement (in words) ([7]; 6 patients, 4 weeks): These results were confirmed; also recorded: very good or good improvement was observed in all patients
Number of patients showing good improvement [7, 12]: 3 patients
Number of patients showing very good improvement [7, 12]: 3 patients

C=CCOc1ccccc1OCC(O)CNC(C)C (stereo not shown) [oxprenolol]
activity against tremor [8]: inactive

C=CCc1ccccc1OCC(O)CNC(C)C (stereo not shown) [alprenolol]
activity against tremor [8]: inactive

CC(C)(C)NC[C@H](O)COc1nsnc1N1CCOCC1 [timolol]
activity against tremor [8]: inactive

CC(C)NCC(O)COc1cccc2ccccc12 (stereo not shown) [propranolol]
activity against tremor [8]: conflicting results
